Laboratory results as given in publication PMC12079500, “An Intracellular Peptide Library Screening Platform Identifies Irreversible Covalent Transcription Factor Inhibitors” (Advanced Science, 2025).
Where two headings read alike, the source gives them in different places. Where a SMILES comes first, the peptide text is derived from it. Bridges are numbered along the chain shown (N, C = ends). The star is where a group is joined. 5FAM = O=C1OC2(c3ccc(O)cc3Oc3cc(O)ccc32)c2ccc(C(=O)*)cc21

Columns and labels:
SK-MEL-28 cells = assay: Cell imaging of FAM-peptide uptake; assay type: cell-based, human; conditions: SK-MEL-28, 10 and 30 µM, 6 h, 37 °C, fixed, DAPI counterstain, fluorescence microscopy
Protocol: Cell imaging: Cells were seeded at 40,000 cells per well in a […] and incubated for 24 hours before treatment with vehicle (1% DMSO in water) or peptide for 6 hours. The media was removed and the cells were washed 3x with PBS. 1 mL of paraformaldehyde (80 mg/mL in PBS) was added and incubated at room temperature for 10 minutes. The paraformaldehyde was removed and fixed cells were washed with 3x PBS. 500 µL of DAPI (1 µg/mL) was then added and incubated at room temperature for 5 minutes following by a 3x PBS wash. Cells were imaged using an Evos FL digital inverted fluorescence microscope using brightfield and both GFP (for the FAM label) and DAPI fluorescence filters.

cJun/TRE DNA = molecular target: T1, cJun/TRE DNA (Homo sapiens, UniProt P05412); assay: CD cJun/TRE DNA antagonism assay (TRE DNA signal at 281 nm); assay type: biochemical; conditions: for cJun-TRE DNA IC50, fold improved (oxidised vs reduced): ratio of IC50 reduced / oxidised; for IC50: pH 7.4, 30 min equilibration, triplicate data, Hill fit, error one SD
T1 construct: LC-MS analysis of the cJun bZIP domain; made in house
Source text: CD antagonism experiments were next carried out, as previously described,^[ [13], [18] ^] whereby the structure of a TRE DNA duplex was monitored by following a peak at 281 nm, which shifts upon binding to cJun. The introduction of antagonist to the sample causes the peak to shift back to its unbound signal in a dose‐dependent manner as the cJun is sequestered, leaving unbound DNA in its original structure (Figure S9, Supporting Information). As there is no protein absorbance in this region of the CD spectrum, this measures DNA structure only and produces a simple readout of the proportion of free/cJun‐bound DNA at different antagonist concentrations. By fitting these plots to a Hill equation (OriginPro), IC50 values for HW1, HW29, and HW31 were determined in both reducing and oxidizing conditions (Table S1, Supporting Information; Figure 3C).
(§1) Circular dichroism (CD): An Applied Photophysics Chirascan was used for CD measurements, with a 200 µL sample in a 1 mm path length CD cell. Protein/DNA samples were suspended in 20 mM potassium phosphate,150 mM potassium fluoride at pH 7.4 with or without 5 mM TCEP. cJun was added to TRE DNA (5’-[…], Merck) before addition of antagonist peptide and these samples were equilibrated for 30 minutes before measurement.^[13] For full spectra, three scans between 190 and 260 nm (265-320 nm for DNA binding experiments) were collected with a bandwidth of 1 nm and data sampled at a rate of 0.5 s^-1. These scans were averaged and converted to molar residue ellipticities (MRE). Thermal denaturation experiments were performed by measuring the ellipticity at 222 nm over a 1 to 95°C gradient at 1°C increments. Post-melt scans at 20°C confirmed the transitions were reversible as they overlaid within 5% of the pre-melt scan. The resulting thermal denaturation curves were converted to MRE and fitted to a two-state model, derived via modification of the Gibbs–Helmholtz equation to determine the melting temperature (Tm) ^[26].

cJun [1] = conditions: cited from earlier work
Source text: We previously developed cJun peptide antagonists using a Transcription Block Survival (TBS) assay (Figure 1B).^[ [13] ^] This intracellular peptide library screening platform moves beyond conventional peptide screening systems by selecting peptides based on their ability to not only bind to the target but to meet the more demanding task of functionally antagonizing it by i) binding and, more importantly, ii) blocking its ability to form protein‐DNA interactions.

cJun [2] = molecular target: cJun (Homo sapiens, UniProt P05412); assay: CD thermal denaturation of antagonist-cJun heterodimer; assay type: binding; parameters: LC-MS analysis of the cJun bZIP domain; made in house; conditions: for Antagonist-cJun heterodimer Tm, reduced / Antagonist-cJun heterodimer Tm, oxidised: CD at 222 nm, 1-95 °C, 20 mM potassium phosphate, 150 mM KF; for Antagonist-cJun heterodimer Tm, reduced: pH 7.4, with 5 mM TCEP (reducing); for Antagonist-cJun heterodimer Tm, oxidised: pH 7.4, without TCEP (oxidising), HW31 50 µM + cJun 50 µM; for Antagonist-cJun heterodimer Tm, Δox-red: difference of Tm in oxidising and reducing buffer
Protocol: as §1

Sequence of cJun (Homo sapiens, UniProt P05412) (P05412 252-315 limits assumed): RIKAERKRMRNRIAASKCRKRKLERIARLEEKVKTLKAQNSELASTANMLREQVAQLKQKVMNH
T1 sequence (P05412 252-315 limits assumed): as above

IC50 (cJun/TRE DNA; oxidising buffer (no TCEP), read-out: cJun-TRE DNA IC50, oxidised) [µM] | IC50 (cJun/TRE DNA; reducing buffer (5 mM TCEP), read-out: cJun-TRE DNA IC50, reduced) [µM] | Compound | Cellular uptake (FAM fluorescence within cells) (SK-MEL-28 cells) | cJun-TRE DNA IC50, fold improved (oxidised vs reduced) (cJun/TRE DNA) | Kd (cJun [1]; read-out: Previously determined affinity for cJun) [µM] | Antagonist-cJun heterodimer Tm, reduced (cJun [2]) [°C] | Antagonist-cJun heterodimer Tm, oxidised (cJun [2]) [°C] | Antagonist-cJun heterodimer Tm, Δox-red (cJun [2]) [°C] | Kd (cJun [1]; read-out: Affinity for cJun) [µM]
– | – | CC(C)[C@H](NC(=O)[C@H](CCCCN)NC(=O)[C@H](CCCNC(=N)N)NC(=O)[C@H](CCCCN)NC(=O)[C@H](CCCCN)NC(=O)[C@H](CCCCN)NC(=O)[C@@H]1CCCN1C(=O)c1ccc2c(c1)C(=O)OC21c2ccc(O)cc2Oc2cc(O)ccc21)C(=O)N[C@@H](Cc1ccc(O)cc1)C(=O)NCC(=O)N[C@@H](CCCNC(=N)N)C(=O)N[C@@H](CCCCN)C(=O)N[C@@H](CCCCN)C(=O)N[C@@H](CCCNC(=N)N)C(=O)N[C@@H](CCCNC(=N)N)C(=O)N[C@@H](CCC(N)=O)C(=O)N[C@@H](CCCNC(=N)N)C(=O)N[C@@H](CCCNC(=N)N)C(=O)N[C@@H](CCCNC(=N)N)C(N)=O [FAM-NLSTAT, reference compound] (5FAM-PKKKRKVYGRKKRRQRRR-NH2) | FAM fluorescence was observed within the cells | – | – | – | – | – | –
– | – | CC[C@H](C)[C@H](NC(=O)[C@H](CCC(=O)O)NC(=O)[C@H](CCCCN)NC(=O)[C@H](CCCNC(=N)N)NC(=O)[C@H](CC(C)C)NC(=O)[C@H](C)NC(=O)[C@H](Cc1ccc(O)cc1)NC(=O)[C@H](CC(N)=O)NC(=O)[C@H](CCCNC(=N)N)NC(=O)[C@H](CCC(=O)O)NC(=O)[C@H](CCC(=O)O)NC(=O)[C@H](CC(C)C)NC(=O)[C@H](CCC(N)=O)NC(=O)[C@H](CCC(=O)O)NC(=O)[C@@H](NC(=O)[C@H](CCC(=O)O)NC(=O)[C@H](CCC(=O)O)NC(=O)[C@H](CCC(=O)O)NC(=O)[C@H](CC(C)C)NC(=O)[C@@H](NC(=O)[C@H](CC(=O)O)NC(=O)[C@H](CCC(=O)O)NC(=O)[C@H](CCC(=O)O)NC(=O)[C@@H](NC(=O)[C@@H](NC(=O)[C@H](CC(C)C)NC(=O)[C@H](CCC(=O)O)NC(=O)[C@H](CCC(=O)O)NC(=O)[C@H](C)NC(=O)[C@H](CCC(=O)O)NC(C)=O)C(C)C)C(C)C)C(C)C)[C@@H](C)CC)C(=O)N[C@H]1CCCCNC(=O)C[C@@H](C(=O)N[C@@H](CCC(N)=O)C(N)=O)NC(=O)[C@H](CCC(N)=O)NC(=O)[C@H](CC(C)C)NC(=O)[C@H](CC(=O)O)NC1=O [HW29, reference compound] (Ac-EAEELVVEEDVLEEEIEQLEERNYALRKEIKDLQDQ-NH2; lactam 31-35) | – | 1 | 0.087 ± 0.017 | 68 | 66 | -2 | –
11.8 ± 0.3 | 13.8 ± 0.3 | Ac-LEQRAEELARENEELEKEAEELVVEEDVLEEEIEQLEERNYALRKEIEDLQKQLEKL-NH2 [HW1, reference compound] | – | 1 | – | 73 | 70 | -3 | 0.00021
